IC50 data for 16 molecules are collected here from patent US20200216416A1, “QUINOLINE COMPOUNDS AS INHIBITORS OF TAM AND MET KINASES” (Array BioPharma Inc., priority 2019, published 2020).

In general, IC50 refers to the concentration that inhibits the measured activity by half.

Assay [1] deals with T1, His-tagged recombinant human AXL cytoplasmic domain (Homo sapiens, UniProt P30530).
T1 construct: His-tagged recombinant human AXL cytoplasmic domain
T1 sequence (P30530 473-894 limits assumed): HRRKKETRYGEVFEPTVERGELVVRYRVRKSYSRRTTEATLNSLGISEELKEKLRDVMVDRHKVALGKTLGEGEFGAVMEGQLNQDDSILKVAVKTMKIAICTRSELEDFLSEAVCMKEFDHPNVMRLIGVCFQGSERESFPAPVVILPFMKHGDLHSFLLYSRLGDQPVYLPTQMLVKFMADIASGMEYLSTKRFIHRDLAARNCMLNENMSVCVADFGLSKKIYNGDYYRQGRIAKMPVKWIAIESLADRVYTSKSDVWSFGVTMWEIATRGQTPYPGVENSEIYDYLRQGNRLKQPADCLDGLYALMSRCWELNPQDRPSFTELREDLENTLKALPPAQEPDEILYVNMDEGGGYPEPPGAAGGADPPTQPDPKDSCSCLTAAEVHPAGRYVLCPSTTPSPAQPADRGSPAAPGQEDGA
Kind of assay: AXL Enzyme Assay (LanthaScreen Eu Kinase Binding). Conditions: averaged IC50; 60-minute incubation at 22° C.; TR-FRET. Put shortly:
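TR-FRET binding-displacement format: 20 nM Alexa Fluor Tracer 236, 2 nM biotin-anti-His and 2 nM Eu-streptavidin in 25 mM HEPES pH 7.4, 10 mM MgCl2, 0.01% Triton X-100, 2% DMSO. After 60 min at 22 °C, ratiometric percent of control was fitted to a 4-parameter logistic curve, IC50 taken at 50 POC.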

The target of assay [2] is T2, His-tagged recombinant human MER cytoplasmic domain (Homo sapiens, UniProt Q12866).
T2 construct: His-tagged recombinant human MER cytoplasmic domain
T2 sequence (Q12866 527-999 limits assumed): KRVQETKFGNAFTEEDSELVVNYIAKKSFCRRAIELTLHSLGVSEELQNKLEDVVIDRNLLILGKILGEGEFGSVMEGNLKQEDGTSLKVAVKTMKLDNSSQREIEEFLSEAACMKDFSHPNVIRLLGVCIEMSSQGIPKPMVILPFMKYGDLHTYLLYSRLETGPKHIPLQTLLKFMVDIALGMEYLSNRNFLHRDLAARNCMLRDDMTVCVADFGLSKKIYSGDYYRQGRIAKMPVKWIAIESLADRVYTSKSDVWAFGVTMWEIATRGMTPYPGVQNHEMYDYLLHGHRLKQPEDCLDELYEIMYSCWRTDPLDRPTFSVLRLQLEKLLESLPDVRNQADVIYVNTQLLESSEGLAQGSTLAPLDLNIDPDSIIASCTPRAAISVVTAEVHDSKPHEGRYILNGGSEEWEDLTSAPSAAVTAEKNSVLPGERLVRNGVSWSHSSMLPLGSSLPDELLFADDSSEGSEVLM
Description: MER Enzyme Assay (LanthaScreen Eu Kinase Binding). Conditions: averaged IC50; MER 5 nM; 60-minute incubation at 22° C.; TR-FRET. The method in brief: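 TR-FRET binding: 5 nM His-MER cytoplasmic domain with 20 nM Tracer 236, 2 nM biotin-anti-His and 2 nM Eu-streptavidin in pH 7.4 HEPES, 10 mM MgCl2, 2% DMSO, with threefold compound dilutions, 60 min at 22 °C. Percent of control was fit to a 4-parameter logistic, and IC50 was taken at 50 POC.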
Background: In TR-FRET formats the signal depends on donor and acceptor labels being close together.

In the next assay the target is T3, human MET kinase D1228N (Homo sapiens, UniProt P08581, D1228N).
T3 construct: GST-tagged recombinant human MET kinase domain; purchased Signal Chem
Kind of assay: c-Met Enzyme Assay, D1228N mutant. Type of assay: binding. The following applies: averaged IC50; D1228N 2 nM; 60-minute incubation at 22° C.; read-out: D1228 N IC50. The protocol: (§1) The affinity of compound binding to wild type and mutant human MET kinases was measured using Invitrogen's LanthaScreen™ Eu Kinase Binding technology. Briefly, GST-tagged recombinant human MET kinase domain from Signal Chem (see Table 8 below for concentration in assay) was incubated with 50 nM Alexa-Fluor® Tracer 236 (Invitrogen Cat No. PR9078A) and 2 nM Europium-anti-GST (Invitrogen Cat. No. A15116) along with test compound in a buffer consisting of 25 mM HEPES, pH 7.4, 10 mM MgCl2, 0.01% Triton X-100, 1mM DTT, and 2% DMSO. Compounds were typically prepared in a three-fold serial dilution in DMSO and added to the assay to give the appropriate final concentration. After a 60-minute incubation at 22° C., the reaction was measured using a PerkinElmer EnVision multimode plate reader via TR-FRET dual wavelength detection, and the percent of control (POC) calculated using a ratiometric emission factor. […] The POC values were fit to a 4 parameter logistic curve and the IC50 value is point where the curve crosses 50 POC.

For the next assay, the target named is T4, human MET kinase D1228H (Homo sapiens, UniProt P08581, D1228H).
T4 construct: GST-tagged recombinant human MET kinase domain; purchased Signal Chem
Kind of assay: c-Met Enzyme Assay, D1228H mutant. The format is binding. Conditions: averaged IC50; D1228H 2 nM; 60-minute incubation at 22° C.; read-out: D1228 H IC50. The protocol: as §1

Molecules are shown by their SMILES.

T4 sequence (P08581 1078-1345 D1228H): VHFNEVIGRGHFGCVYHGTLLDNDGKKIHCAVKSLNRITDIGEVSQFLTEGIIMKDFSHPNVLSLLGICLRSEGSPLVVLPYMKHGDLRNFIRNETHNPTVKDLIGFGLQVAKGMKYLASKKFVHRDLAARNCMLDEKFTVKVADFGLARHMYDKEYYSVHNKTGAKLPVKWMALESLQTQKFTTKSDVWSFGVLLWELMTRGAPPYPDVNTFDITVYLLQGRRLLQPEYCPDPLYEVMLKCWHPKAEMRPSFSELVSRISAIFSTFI
T3 sequence (P08581 1078-1345 D1228N): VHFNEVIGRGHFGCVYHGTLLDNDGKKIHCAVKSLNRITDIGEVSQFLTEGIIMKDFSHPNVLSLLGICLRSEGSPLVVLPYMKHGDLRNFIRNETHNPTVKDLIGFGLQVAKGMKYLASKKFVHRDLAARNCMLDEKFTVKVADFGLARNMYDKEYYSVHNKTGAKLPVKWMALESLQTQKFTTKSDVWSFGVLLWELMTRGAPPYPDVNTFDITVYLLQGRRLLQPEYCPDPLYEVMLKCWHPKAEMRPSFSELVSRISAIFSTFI

Regarding `COc1cc2ncc(C#N)c(Oc3ccc(NC(=O)c4cn(C(C)C)cc(-c5ccc(F)cc5)c4=O)nc3)c2cc1OC` [Example 57, N-(5-((3-cyano-6,7-dimethoxyquinolin-4-yl)oxy)pyridin-2-yl)-5-(4-fluorophenyl)-1-isopropyl-4-oxo-1,4-dihydropyridine-3-carboxamide], the concentration for half-maximal inhibition (IC50) in assay [1] was 12 nM; in assay [2], 29 nM; at human MET kinase D1228N, 1060 nM; on human MET kinase D1228H, 532 nM.
For `CCCn1cc(C(=O)Nc2ccc(Oc3ccnc4cc(OC)c(OC)cc34)cn2)c(=O)c(-c2ccc(F)cc2)c1` [Example 10, N-(5((6,7-dimethoxyquinolin-4-yl)oxy)pyridin-2-yl)-5-(4-fluorophenyl)-4-oxo-1-propyl-1,4-dihydropyridine-3-carboxamide] the same measures were 4 nM, 8 nM, 4.1 nM and 3.7 nM.
In the case of `CCOc1ccc2nccc(Oc3ccc(NC(=O)c4cn(C(C)C)cc(-c5ccc(F)cc5)c4=O)nc3)c2c1` [Example 51, N-(5-((6-ethoxyquinolin-4-yl)oxy)pyridin-2-yl)-5-(4-fluorophenyl)-1-isopropyl-4-oxo-1,4-dihydropyridine-3-carboxamide], the 50% inhibitory concentration (IC50) amounted to 5 nM in assay [1], 14 nM in assay [2], 178 nM at human MET kinase D1228N and 59.5 nM on human MET kinase D1228H.
The like results for `COc1cc2nccc(Oc3ccc(NC(=O)c4cn(C(C)C)cc(-c5ccc(F)cc5Cl)c4=O)nc3)c2cc1OC` [Example 18, 5-(2-chloro-4-fluorophenyl)-N-(5-((6,7-dimethoxyquinolin-4-yl)oxy)pyridin-2-yl)-1-isopropyl-4-oxo-1,4-dihydropyridine-3-carboxamide] were, in that order, 2 nM, 2 nM, 4.7 nM and 2.4 nM.
The like results for `CCCC(CCC)n1cc(C(=O)Nc2ccc(Oc3ccnc4cc(OC)c(OC)cc34)cn2)c(=O)c(-c2ccc(F)cc2F)c1` [Example 17, 5-(2,4-difluorophenyl)-N-(5-((6,7-dimethoxyquinolin-4yl)oxy)pyridin-2-yl)-1-(heptan-4-yl)-4-oxo-1,4-dihydropyridine-3-carboxamide] were, in that order, 28 nM, 52 nM, 25 nM and 13.3 nM.
On to `COc1ccc2nccc(Oc3ccc(NC(=O)c4cn(CCN(C)C)cc(-c5ccc(F)cc5)c4=O)nc3)c2c1` [Example 47], for which the 50% inhibitory concentration (IC50) in assay [1] amounted to 1 nM; in assay [2], 7 nM; on human MET kinase D1228N, 29.7 nM; on human MET kinase D1228H, 31.1 nM.
The like results for `COc1cc2nccc(Oc3ccc(NC(=O)c4cn(C(C)C)cc(-c5ccc(F)cc5)c4=O)nc3)c2cc1OC` [Example 1] were, in that order, 1 nM, 3 nM, 3.4 nM and 1.8 nM.
For `COc1cc2nccc(Oc3cnc(NC(=O)c4cn(C(C)C)cc(-c5ccc(F)cc5)c4=O)nc3)c2cc1OC` [Example 54, N-(5-((6,7-dimethoxyquinolin-4-yl)oxy)pyrimidin-2-yl)-5-(4-fluorophenyl)-1-isopropyl-4-oxo-1,4-dihydropyridine-3-carboxamide] the same measures were 5 nM, 10 nM, 8.3 nM and 3.8 nM.
As for `COc1cc2nccc(Oc3ccc(NC(=O)c4cn(CCC(C)C)cc(-c5ccc(Cl)cc5)c4=O)nc3)c2cc1OC` [Example 37], the IC50 in assay [1] was found to be 5 nM; in assay [2], 16 nM; on human MET kinase D1228N, 16.8 nM; at human MET kinase D1228H, 10.5 nM.
For `COc1cc2nccc(Oc3cnc(NC(=O)c4cn(C(C)C)c(C)c(-c5ccc(F)cc5)c4=O)nc3)c2cc1OC` [Example 55, N-(5-((6,7-dimethoxyquinolin-4-yl)oxy)pyrimidin-2-yl)-5-(4-fluorophenyl)-1-isopropyl-6-methyl-4-oxo-1,4-dihydropyridine-3-carboxamide], the concentration for half-maximal inhibition (IC50) in assay [1] was found to be 2 nM; in assay [2] it was 5 nM; on human MET kinase D1228N, 3.4 nM; at human MET kinase D1228H it was 2.2 nM.
For `COc1cc2nccc(Oc3ccc(NC(=O)c4cn(CC(=O)N(C)C)cc(-c5ccc(F)cc5F)c4=O)nc3)c2cc1OC` [Example 13, 5-(2,4-difluorophenyl)-N-(5((6,7-dimethoxyquinolin-4-yl)oxy)pyridin-2-yl)-1-(2-(dimethylamino)-2-oxoethyl)-4-oxo-1,4-dihydropyridine-3-carboxamide] the same measures were 2 nM, 5 nM, 11.6 nM and 4.4 nM.
Turning to `COc1ccc(-c2cn(C(C)C)cc(C(=O)Nc3ccc(Oc4ccnc5cc(OC)c(OC)cc45)cn3)c2=O)cc1` [Example 30, N-(5-((6,7-dimethoxyquinolin-4yl)oxy)pyridin-2-yl)-1-isopropyl-5-(4-methoxyphenyl)-4-oxo-1,4-dihydropyridine-3-carboxamide], the half-inhibitory concentration (IC50) amounted to 2 nM in assay [1], 5 nM in assay [2], 100 nM on human MET kinase D1228N and 57.4 nM at human MET kinase D1228H.
For `CCn1cc(C(=O)Nc2ccc(Oc3ccnc4cc(OC)c(OC)cc34)cn2)c(=O)c(-c2ccc(F)cc2)c1` [Example 3], the IC50 worked out at 1 nM in assay [1], 3 nM in assay [2], 7.4 nM at human MET kinase D1228N and 4.7 nM on human MET kinase D1228H.
Take `COc1cc2nccc(Oc3ccc(NC(=O)c4cn(CC(=O)N(C)C)cc(-c5ccc(F)cc5)c4=O)nc3)c2cc1OC` [Example 23, N-(5-((6,7-dimethoxyquinolin-4yl)oxy)pyridin-2-yl)-1-(2-(dimethylamino)-2-oxoethyl)-5-(4-fluorophenyl)-4-oxo-1,4-dihydropyridine-3-carboxamide]: the IC50 in assay [1] came to 1 nM; in assay [2] it was 3 nM; on human MET kinase D1228N, 13.5 nM; on human MET kinase D1228H, 11.5 nM.
With `COc1cc2nccc(Oc3ccc(NC(=O)c4cn(CCC(C)C)cc(-c5ccc(F)cc5)c4=O)nc3)c2cc1OC` [Example 34, N-(5-((6,7-dimethoxyquinolin-4yl)oxy)pyridin-2-yl)-5-(4-fluorophenyl)-1-isopentyl-4-oxo-1,4-dihydropyridine-3-carboxamide], the IC50 is 2 nM in assay [1], 9 nM in assay [2], 7.2 nM on human MET kinase D1228N and 5.5 nM on human MET kinase D1228H.
Turning to `COc1cc2nccc(Oc3ccc(NC(=O)c4cn(CCN(C)C)cc(-c5ccc(F)cc5)c4=O)nc3)c2cc1OC` [Example 46], the IC50 was 1 nM in assay [1], 2 nM in assay [2], 5.4 nM at human MET kinase D1228N and 3.2 nM on human MET kinase D1228H.
